In one series the target is RIPK1 (Homo sapiens (Human), UniProt Q13546). Nature of the series: RIPK1 Binding Assay. The following applies: displacement of fluorescent probe, TR-FRET. Here is the method:
Compounds were tested for their ability to displace a fluorescent probe from recombinant human RIPK1.
Recombinant human RIPK1 (1-375) was prepared as described in Harris et al., ACS Med. Chem. Letters (2013) 4:1238-1243 (Supplementary Information), with the following exceptions: (i) instead of using the gene sequence from NM_003804.3, the gene was synthesized with codon optimization for BEV expression system, and (ii) the gene was cloned into the vector pFastBac1, not pDEST8.
A fluorescent probe containing an Oregon green fluorophore was synthesized from a compound known to bind to RIPK1.
The assay was performed in a buffer containing 50 mM N-2-Hydroxyethylpiperazine-N′-2-ethanesulfonic acid (HEPES) (pH 7.5), 10 mM MgCl2, 1 mM ethylene diamine tetraacetic acid (EDTA), and 0.01% BRIJ-35 (Polyoxyethylene (23) lauryl ether). Test compounds were solvated in dimethyl sulfoxide (DMSO) at final concentrations 4-fold serially diluted from 100 to 0.000095 uM in technical duplicates into an empty 384 well plate. Recombinant RIPK1 (final concentration of 2.5 nM) was added to the wells and incubated with test compound for 1 hour at room temperature. A solution containing the fluorescent probe (final concentration 5 nM) and an LanthaScreen Tb-anti-GST antibody (Thermofisher Scientific; final concentration of 5 nM) was then added to each well, with the Tb-anti-GST antibody binding to the GST portion of the recombinant RIPK1 and providing the corresponding FRET pair to the fluorescent probe. The plate was incubated for 1 hour at room temperature and read on an Envision plate reader using a time resolved FRET protocol. Data was normalized and analyzed using Studies from Dotmatics.

The next series has as its system U937 cells. Description: U937 TNF/zVAD Cytotoxicity Cell Assay. Type of series: cell-based. The settings on record: Homo sapiens, U-937; TNFα 10 ng/mL + Z-VAD FMK 20 μM, 16-20 hours; read-out: U937 TNF/zVAD Induced Cytotoxicity IC50. As to the method: Compounds were tested for their ability to prevent TNF induced necroptosis in U937 cells. Treatment with TNF and the caspase inhibitor zVAD-FMK results in the activation and phosphorylation of RIPK1 and subsequent phosphorylation of RIPK3 and MLKL (Mixed Lineage Kinase Domain Like Pseudokinase), leading to induction of necroptotic cell death that is measured as a reduction in cell viability. Similar U937 assay protocols have been previously described; see, e.g., Harris et al., ACS Med. Chem. Letters (2013) 4:1238-1243 and Supplementary Information.
Test compounds were solvated in dimethyl sulfoxide (DMSO) and 3-fold serially diluted from 10 uM to 0.0005 uM with technical duplicates into an empty 384 well plate. U937 cells were resuspended at a concentration of 500,000 cells/mL in fresh RPMI (Roswell Park Memorial Institute) 1640 growth medium containing 10% heat inactivated fetal bovine serum (FB1S) and seeded into a 384 well plate containing compounds and incubated for 1 hour at 37° C. Following incubation, the cells were challenged with TNFα (final concentration of 10 ng/mL) and Z-VAD FMK (N-Benzyloxycarbonyl-Val-Ala-Asp(O-Me) fluoromethyl ketone; final concentration of 20 μM) for 16-20 hours at 37° C. Following the incubation with TNFα/Z-VAD, cells were lysed with Cell Titer-Glo and incubated for 5-10 minutes. The plate was then read on an Envision plate reader. Data was normalized and analyzed with Studies from Dotmatics.

Series [1] can be described thus: Prodrug bioconversion in intestinal S9 cell fractions. The format is in vitro ADME. The settings on record: 0.25 mg/mL. As to the method: Phosphatase enzymes are […] expressed with unique tissue specific isoforms and are key catalysts in the conversion of phosphate-containing prodrugs. To determine if exemplary phosphate prodrug compounds of the invention are enzymatically converted to the parent molecule across relevant species, the prodrug compounds were incubated with intestinal S9 cell fractions obtained from mouse, rat, dog, monkey, and human.
Phosphate prodrugs were incubated (1 μM) for up to 2 hours in Tris-Cl buffer (pH 7.4) containing 3 mM magnesium chloride, intestinal S9 protein ([…] (ms, rat, hu, Table F) from mouse, rat, dog, monkey or human. Incubations were conducted in the absence and presence of 1 mM sodium orthovanadate, a phosphatase inhibitor. Prodrug depletion and parent formation were monitored by LC-MS/MS and normalized to internal standard as the analyte peak area ratio.

RIPK1, sequence (Q13546 1-375): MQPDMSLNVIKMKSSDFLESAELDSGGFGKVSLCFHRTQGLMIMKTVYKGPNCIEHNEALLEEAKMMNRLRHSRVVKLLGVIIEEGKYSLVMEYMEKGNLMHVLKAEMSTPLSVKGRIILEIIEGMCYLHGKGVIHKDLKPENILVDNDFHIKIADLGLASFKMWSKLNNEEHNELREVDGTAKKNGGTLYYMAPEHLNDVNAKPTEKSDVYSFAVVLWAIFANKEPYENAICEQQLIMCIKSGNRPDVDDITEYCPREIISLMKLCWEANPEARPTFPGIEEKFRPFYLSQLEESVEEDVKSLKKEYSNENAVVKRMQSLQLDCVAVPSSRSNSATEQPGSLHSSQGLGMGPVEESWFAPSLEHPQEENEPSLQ

For `CN(C[C@@H](O)Cc1ccccc1)C(=O)c1cncc(C#Cc2cnn(C(F)F)c2)c1` [Example 2, (S)-5-((1-(difluoromethyl)-1H-pyrazol-4-yl)ethynyl)-N-(2-hydroxy-3-phenylpropyl)-N-methylnicotinamide], the figures for the IC50 on RIPK1 and in the series on U937 cells were 4 nM and 11 nM, respectively.
Take `CN(C[C@H](Cc1ccccc1)OP(=O)(O)O)C(=O)c1cncc(C#Cc2cnn(C(F)F)c2)c1` [Example 19, (S)-1-(5-((1-(difluoromethyl)-1H-pyrazol-4-yl)ethynyl)-N-methylnicotinamido)-3-phenylpropan-2-yl dihydrogen phosphate]: the “Clint (prodrug disappearance)” value in series [1] (Dog, Experiment 1) is given as 331 μL/min/mg intestinal S9 protein; in series [1] (Dog, Experiment 2) it was 387 μL/min/mg intestinal S9 protein; in series [1] (Dog, Experiment 3) it was 397 μL/min/mg intestinal S9 protein; in series [1] (Dog, Mean of 3 experiments), 371.7 μL/min/mg intestinal S9 protein; in series [1] (Monkey, Experiment 1) it was 87.5 μL/min/mg intestinal S9 protein; in series [1] (Monkey, Experiment 2), 60.3 μL/min/mg intestinal S9 protein. In addition, the “Clint (prodrug disappearance)” value in series [1] (Monkey, Experiment 3) is 60.7 μL/min/mg intestinal S9 protein; in series [1] (Monkey, Mean of 3 experiments), 69.5 μL/min/mg intestinal S9 protein.
